Test results published in patent publication US20150284394A1, “INHIBITORS OF BRUTON'S TYROSINE KINASE” (HOFFMANN-LA ROCHE INC., priority 2012, published 2015).
pIC50: −log10 of the molar value.

Tests used:
[1] = test system: B cells in human blood; experiment: Inhibition of B cell activation in whole blood measured by CD69 expression; format: cell-based; settings: anti-IgM stimulation, 20 hours, CD69-positive cells that are also CD20-positive, read-out: HWB IC50
Protocol: A procedure to test the ability of Btk inhibitors to suppress B cell receptor-mediated activation of B cells in human blood is as follows:
Human whole blood (HWB) is obtained from healthy volunteers, with the following restrictions: 24 hr drug-free, non-smokers. Blood is collected by venipuncture into Vacutainer tubes anticoagulated with sodium heparin. Test compounds are diluted to ten times the desired starting drug concentration in PBS (20×), followed by three-fold serial dilutions in 10% DMSO in PBS to produce a nine point dose-response curve. 5.5 μl of each compound dilution is added in duplicate to a 2 ml 96-well V bottom plate (Analytical Sales and Services, #59623-23); 5.5 μl of 10% DMSO in PBS is added to control and no-stimulus wells. HWB (100 μl) is added to each well, and after mixing the plates are incubated at 37 C, 5% CO2, 100% humidity for 30 minutes. Goat F(ab′)2 anti-human IgM (Southern Biotech, #2022-14) (10 μl of a 500 μg/ml solution, 50 μg/ml final concentration) is added to each well (except the no-stimulus wells) with mixing and the plates are incubated for an additional 20 hours.
At the end of the 20 hour incubation, samples are incubated with florescent-probe-labeled anti-bodies (15 μl PE Mouse anti-Human CD20, BD Pharmingen, #555623, and/or 20 ul APC Mouse anti-Human CD69, BD Pharmingen #555533) for 30 minutes, at 37 C, 5% CO2, 100% humidity. Included are induced control, unstained and single stains for compensation adjustments and initial voltage settings. Samples are then lysed with 1 ml of 1× Pharmingen Lyse Buffer (BD Pharmingen #555899), and plates are centrifuged at 1800 rpm for 5 minutes. Supernatants are removed via suction and the remaining pellets are lysed again with another 1 ml of 1× Pharmingen Lyse Buffer, and plates are spun down as before. Supernatants are aspirated and remaining pellets are washed in FACs buffer (PBS+1% FBS). After a final spin, the supernantants are removed and pellets are resuspended in 180 μl of FACs buffer. Samples are transferred to a 96 well plate suitable to be run on the HTS 96 well system on the BD LSR II flow cytometer.
Using appropriate excitation and emission wavelengths for the fluorophores used, data are acquired and percent positive cell values are obtained using Cell Quest Software. Results are initially analyzed by FACS analysis software (Flow Jo). […] The IC50 values are calculated using XLfit software version 3, equation 201.

[2] = molecular target: Bruton's Tyrosine Kinase (Homo sapiens, UniProt Q06187); experiment: Bruton's Tyrosine Kinase (BTK) Inhibition TR-FRET competition assay; format: binding; settings: inactivated state of BTK; Kinase Tracer 178; 18-24 h at 14° C
Protocol: This BTK competition assay measures compound potency (IC50) for the inactivated state of Bruton's Tyrosine Kinase using FRET (Forster/Fluorescence Resonance Energy Transfer) technology. The BTK-Eu complex was incubated on ice one hour prior to use at a starting concentration of 50 nM BTK-Bioease™: 10 nM Eu-streptavidin (Perkin-Elmer Catalog# AD0062). The assay buffer consisted of 20 mM HEPES (pH 7.15), 0.1 mM DTT, 10 mM MgCl2, 0.5 mg/ml BSA with 3% Kinase Stabilizer (Fremont Biosolutions, Catalog # STB-K02). After 1 h, the reaction mixture from above was diluted 10 fold in assay buffer to make 5 nM BTK: 1 nM Eu-Streptavidin complex (donor fluorophore). […] of a mixture of 0.11 nM BTK-Eu and 0.11 nM Kinase Tracer 178 (Invitrogen, Catalog # PV5593,) with BTK-Eu alone as no negative control, was then dispensed into 384-well flat bottom plates (Greiner, 784076). Compounds to be tested in assay were prepared as 10× concentrations and serial dilution in half-log increments was performed in DMSO so as to generate 10 point curves. To initiate the FRET reaction, compounds prepared as 10× stock in DMSO was added to the plates and the plates were incubated 18-24 h at 14° C.
After the incubation the plates were read on a BMG Pherastar Fluorescent plate reader (or equivalent) and used to measure the emission energy from the europium donor fluorophore (620 nm emission) and the FRET (665 nm emission). The negative control well values were averaged to obtain the mean minimum. The positive “no inhibitor” control wells were averaged to obtain the mean maximum. Percent of maximal FRET was calculated using following equation:
% max FRET=100×[(FSRcmpd−FSRmean min)/(FSRmean max−FSRmean min)]
where FSR=FRET Signal ratio. % Max FRET curves were plotted in Activity Base (Excel) and the IC50(%), hill slope, z′ and % CV were determined. The mean IC50 and standard deviation will be derived from duplicate curves (singlet inhibition curves from two independent dilutions) using Microsoft Excel.

Bruton's Tyrosine Kinase, sequence (Q06187 whole entry): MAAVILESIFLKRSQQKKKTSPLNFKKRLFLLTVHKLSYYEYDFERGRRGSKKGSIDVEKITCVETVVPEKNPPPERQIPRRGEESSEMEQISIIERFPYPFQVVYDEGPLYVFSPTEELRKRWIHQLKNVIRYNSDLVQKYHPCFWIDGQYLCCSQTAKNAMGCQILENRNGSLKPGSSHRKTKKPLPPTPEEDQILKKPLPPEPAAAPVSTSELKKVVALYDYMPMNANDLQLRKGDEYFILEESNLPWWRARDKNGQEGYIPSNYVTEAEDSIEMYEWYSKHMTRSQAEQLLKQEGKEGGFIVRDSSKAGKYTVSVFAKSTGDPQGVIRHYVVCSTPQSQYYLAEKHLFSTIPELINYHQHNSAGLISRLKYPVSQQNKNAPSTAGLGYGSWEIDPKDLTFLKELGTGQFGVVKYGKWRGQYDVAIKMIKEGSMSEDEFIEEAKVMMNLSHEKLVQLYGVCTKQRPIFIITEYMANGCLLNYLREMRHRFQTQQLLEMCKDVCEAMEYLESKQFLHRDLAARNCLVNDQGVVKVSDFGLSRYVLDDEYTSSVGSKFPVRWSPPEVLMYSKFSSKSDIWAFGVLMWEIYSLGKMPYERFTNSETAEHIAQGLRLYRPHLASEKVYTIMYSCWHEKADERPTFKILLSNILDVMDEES

Row | Structure (SMILES) | pIC50 [1] | pIC50 [2]
1 | Cn1cc(-c2cc3c(-c4ccc(CNC(=O)c5ccc(C6(C)COC6)cc5)c(F)c4)ncnc3[nH]2)cn1 [Compound I-35, N-{2-Fluoro-4-[6-(1-methyl-1H-pyrazol-4-yl)-7H-pyrrolo[2,3-d]pyrimidin-4-yl]-benzyl}-4-(3-methyl-oxetan-3-yl)-benzamide] | 5.26 | 8.10
2 | Cn1cc(-c2cc3c(-c4ccc(CNC(=O)c5ccc(C(C)(C)C#N)cc5)c(F)c4)ncnc3[nH]2)cn1 [Compound I-36, 4-(Cyano-dimethyl-methyl)-N-{2-fluoro-4-[6-(1-methyl-1H-pyrazol-4-yl)-7H-pyrrolo[2,3-d]pyrimidin-4-yl]-benzyl}-benzamide] | 5.17 | 8.40
3 | Cn1cc(-c2cc3c(-c4ccc(CNC(=O)c5cc6c(s5)CCCC6)c(F)c4)ncnc3[nH]2)cn1 [Compound I-37, 4,5,6,7-Tetrahydro-benzo[b]thiophene-2-carboxylic acid 2-fluoro-4-[6-(1-methyl-1H-pyrazol-4-yl)-7H-pyrrolo[2,3-d]pyrimidin-4-yl]-benzylamide] | 6.18 | 9.52
4 | Cn1cc(-c2cc3c(-c4ccc(CNC(=O)c5ccc(C(C)(C)O)cc5)c(F)c4)ncnc3[nH]2)cn1 [Compound I-38, N-{2-Fluoro-4-[6-(1-methyl-1H-pyrazol-4-yl)-7H-pyrrolo[2,3-d]pyrimidin-4-yl]-benzyl}-4-(1-hydroxy-1-methyl-ethyl)-benzamide] | 5.49 | 8.52
5 | Cn1cc(-c2cc3c(-c4ccc(CNC(=O)c5cc(C(C)(C)C)no5)c(F)c4)ncnc3[nH]2)cn1 [Compound I-39, 3-tert-Butyl-isoxazole-5-carboxylic acid 2-fluoro-4-[6-(1-methyl-1H-pyrazol-4-yl)-7H-pyrrolo[2,3-d]pyrimidin-4-yl]-benzyl amide] | 7.55 | 9.70
6 | Cn1cc(-c2cc3c(-c4ccc(CNC(=O)N5CC(OC(C)(C)C)C5)c(F)c4)ncnc3[nH]2)cn1 [Compound I-40, 3-tert-Butoxy-azetidine-1-carboxylic acid 2-fluoro-4-[6-(1-methyl-1H-pyrazol-4-yl)-7H-pyrrolo[2,3-d]pyrimidin-4-yl]-benzylamide] | 7.28 | 9.22
7 | Cn1cc(-c2cc3c(-c4ccc(CNC(=O)N5Cc6ccccc6C5)c(F)c4)ncnc3[nH]2)cn1 [Compound I-41, 1,3-Dihydro-isoindole-2-carboxylic acid 2-fluoro-4-[6-(1-methyl-1H-pyrazol-4-yl)-7H-pyrrolo[2,3-d]pyrimidin-4-yl]-benzylamide] | 6.81 | 9.22
8 | CN(C)CCn1cc(-c2cc3c(-c4ccc(CNC(=O)c5ccc(C(C)(C)C)cc5)c(F)c4)ncnc3[nH]2)cn1 [Compound I-42, 4-tert-Butyl-N-(4-{6-[1-(2-dimethylamino-ethyl)-1H-pyrazol-4-yl]-7H-pyrrolo[2,3-d]pyrimidin-4-yl}-2-fluoro-benzyl)-benzamide] | 6.64 | 9.30
9 | CN(C)CCn1cc(-c2cc3c(-c4ccc(CNC(=O)N5CC(OC(C)(C)C)C5)c(F)c4)ncnc3[nH]2)cn1 [Compound I-43, 3-tert-Butoxy-azetidine-1-carboxylic acid 4-{6-[1-(2-dimethylamino-ethyl)-1H-pyrazol-4-yl]-7H-pyrrolo[2,3-d]pyrimidin-4-yl}-2-fluoro-benzylamide] | 6.56 | 9.22
10 | CN(C)CCn1cc(-c2cc3c(-c4ccc(CNC(=O)N5Cc6ccccc6C5)c(F)c4)ncnc3[nH]2)cn1 [Compound I-44, 1,3-Dihydro-isoindole-2-carboxylic acid 4-{6-[1-(2-dimethylamino-ethyl)-1H-pyrazol-4-yl]-7H-pyrrolo[2,3-d]pyrimidin-4-yl}-2-fluoro-benzylamide] | 6.73 | 9.28
11 | CCOC(=O)Cn1cc(-c2cc3c(-c4ccc(CNC(=O)c5ccc(C(C)(C)C)cc5)c(F)c4)ncnc3[nH]2)cn1 [Compound I-45, [4-(4-{4-[(4-tert-Butyl-benzoylamino)-methyl]-3-fluoro-phenyl}-7H-pyrrolo[2,3-d]pyrimidin-6-yl)-pyrazol-1-yl]-acetic acid ethyl ester] | 6.65 | 9.22
12 | CC(C)(C)c1ccc(C(=O)NCc2ccc(-c3ncnc4[nH]c(-c5cnn(CC(=O)O)c5)cc34)cc2F)cc1 [Compound I-46, [4-(4-{4-[(4-tert-Butyl-benzoylamino)-methyl]-3-fluoro-phenyl}-7H-pyrrolo[2,3-d]pyrimidin-6-yl)-pyrazol-1-yl]-acetic acid] | < 4.30 | 9.00
13 | Cn1cc(-c2cc3c(-c4ccc(CNC(=O)c5cc6n(n5)CCCC6)c(F)c4)ncnc3[nH]2)cn1 [Compound I-47, N-(2-fluoro-4-(6-(1-methyl-1H-pyrazol-4-yl)-7H-pyrrolo[2,3-d]pyrimidin-4-yl)benzyl)-4,5,6,7-tetrahydropyrazolo[1,5-a]pyridine-2-carboxamide] | 6.17 | 8.49
14 | Cn1cc(-c2cc3c(-c4ccc(CNC(=O)c5nc(C(C)(C)C)no5)c(F)c4)ncnc3[nH]2)cn1 [Compound I-49, 3-tert-Butyl-[1,2,4]oxadiazole-5-carboxylic acid 2-fluoro-4-[6-(1-methyl-1H-pyrazol-4-yl)-7H-pyrrolo[2,3-d]pyrimidin-4-yl]-benzylamide] | 8.70 | 9.96
